In patent publication US8242275B2, “Bicyclic pyrazole compounds as antibacterial agents” (Janssen Pharmaceutica NV, priority 2005, dated 2012):
≈ marks a conversion by molar mass, not a printed value.

What was measured:
[1] = tested on: E. coli KL-16 (GSC strain 4245); test: In vitro antibacterial activity (MIC assay), broth microdilution; type: cell-based; conditions: Escherichia coli
Method: (§1) Minimal inhibitory concentration (MIC) has been an indicator of in vitro antibacterial activity widely used in the art. The in vitro antibacterial activity of the compounds was determined by the broth microdilution method described by the National Committee for Clinical Laboratory Standards (NCCLS) in the NCCLS Document M7-A5, Vol. 20, No. 2, “Methods for Dilution Antimicrobial Susceptibility Test for Bacteria that Grow Aerobically—Fifth Edition”, which is incorporated herein by reference.
(§2) In this method, an aliquot of test compound from an 11-point series of 2-fold serial dilutions of compounds in 100% DMSO was added to wells in microdilution plates. The test organisms were prepared by adjusting the turbidity of actively growing broth cultures so that the final concentration of test organism after addition to wells with or without compounds was approximately 5×10^5 CFU/mL.
(§3) Following inoculation of the microdilution plates, the plates were incubated at 35° C. for 16-24 h and then scored for bacterial growth. […] The amount of growth in the wells containing the test compound was compared with the amount of growth in the growth-control wells (no test compound used) in each plate, and with the amount of growth in the wells containing control compounds (such as ciprofloxacin). Compounds of the present invention were tested against several bacterial strains. The MIC values (in μg/mL) are presented in Table 1 for Gram-negative (E. coli KL-16 (GSC strain 4245); data marked as (*) was obtained with E. coli ATCC25922) and Gram-positive bacteria (S. aureus ATCC13709; S. pneumoniae ATCC49619).

S. aureus ATCC13709 = test: as above; type: cell-based; conditions: Staphylococcus aureus, ATCC13709; read-out: S. aureus ATCC13709 MIC
Method: as §1, §2, §3

S. pneumoniae ATCC49619 = test: as above; type: cell-based; conditions: Streptococcus pneumoniae, ATCC49619; read-out: S. pneumoniae ATCC49619 MIC
Method: as §1, §2, §3

E. coli DNA gyrase = target: T1, E. coli DNA gyrase (Escherichia coli, UniProt P0AES4+P0AES6); test: DNA gyrase inhibition assay (supercoiling); type: biochemical; conditions: E. coli DNA gyrase supercoiling, visual inspection of gels; read-out: DNA Gyrase IC50 (converted)
T1 construct: purchased John Innes Enterprises Ltd. (John Innes Centre, UK)
Method: Inhibition of the supercoiling activity of E. coli DNA gyrase was determined using enzymes, buffers and substrates received from John Innes Enterprises Ltd. (John Innes Centre, UK). The reactions were performed according to the manufacturer's directions, with the following modifications.
DNA supercoiling reactions were carried out in a total reaction volume of 20 μL containing 250 ng of relaxed pBR322, 35 mM Tris-HCl (pH 7.5), 24 mM KCl, 4 mM MgCl2, 2 mM dithiothreitol, 1.8 mM spermidine, 1 mM ATP, 6.5% glycerol and 100 μg/mL albumin. Compounds diluted in 10% DMSO were added to the reaction mixture to reach a final concentration of 0.5% DMSO. Enzyme was diluted to […] in a solution of 50 mM Tris-HCl (pH 7.5), 100 mM KCl, 2 mM dithiothreitol, 1 mM EDTA, and 50% glycerol. Diluted enzyme (0.2 unit) was added to each reaction.
The reactions were incubated at 37° C. for 30 min. The reactions were then cooled to 0° C., followed by addition of 3 μL of 40% glycerol, 100 mM Tris-HCl (pH 7.5), 50 mM EDTA, 0.5% SDS and 0.1% bromophenol blue. Samples were separated on 1.0% agarose gels. Gels were stained with Ethidium bromide and photographed with a Stratagene Eagle Eye II.

MIC [1] [µg/mL] | MIC (S. aureus ATCC13709) [µg/mL] | MIC (S. pneumoniae ATCC49619) [µg/mL] | SMILES | IC50 (E. coli DNA gyrase) [µM]
> 128 | 1 (≈ 2.16 µM) | > 128 | COc1ccc2nccc(-n3cc4c(n3)CCC(NCC(=O)Nc3cccc(Cl)c3)C4)c2n1 (stereo not shown) [Example 123, N-(3-Chloro-phenyl)-2-[2-(6-methoxy-[1,5]naphthyridin-4-yl)-4,5,6,7-tetrahydro-2H-indazol-5-ylamino]-acetamide] | 
> 128 | 4 (≈ 7.47 µM) | > 128 | COc1ccc2nccc(-n3cc4c(n3)CCC(NC(=O)c3cc(NC(C)=O)ccc3Br)C4)c2n1 (stereo not shown) [Example 124, 5-Acetylamino-2-bromo-N-[2-(6-methoxy-[1,5]naphthyridin-4-yl)-4,5,6,7-tetrahydro-2H-indazol-5-yl]-benzamide] | 
> 128 | 0.25 (≈ 0.514 µM) | 8 (≈ 16.4 µM) | COc1ccc2nccc(-n3cc4c(n3)CCC(NC(=O)c3cc(F)c(Cl)cc3Cl)C4)c2n1 (stereo not shown) [Example 125, 2,4-Dichloro-5-fluoro-N-[2-(6-methoxy-[1,5]naphthyridin-4-yl)-4,5,6,7-tetrahydro-2H-indazol-5-yl]-benzamide] | 
> 128 | 1 (≈ 2.13 µM) | 2 (≈ 4.25 µM) | COc1ccc2nccc(-n3cc4c(n3)CCC(NCc3ccc(N(C)C)c(C#N)c3F)C4)c2c1 (stereo not shown) [Example 126, 6-Dimethylamino-2-fluoro-3-{[2-(6-methoxy-quinolin-4-yl)-4,5,6,7-tetrahydro-2H-indazol-5-ylamino]-methyl}-benzonitrile] | 
> 128 | 0.5 (≈ 1.05 µM) | 8 (≈ 16.8 µM) | COc1ccc2nccc(-n3cc4c(n3)CCC(NC(=O)c3cc(F)c5c(c3)OCCO5)C4)c2n1 (stereo not shown) [Example 127, 8-Fluoro-2,3-dihydro-benzo[1,4]dioxine-6-carboxylic acid [2-(6-methoxy-[1,5]naphthyridin-4-yl)-4,5,6,7-tetrahydro-2H-indazol-5-yl]-amide] | 
> 128 | 2 (≈ 4.22 µM) | 8 (≈ 16.9 µM) | COc1ccc2nccc(-n3cc4c(n3)CCC(NC(=O)c3cc(F)c5c(c3)OCCO5)C4)c2c1 (stereo not shown) [Example 128, 8-Fluoro-2,3-dihydro-benzo[1,4]dioxine-6-carboxylic acid [2-(6-methoxy-quinolin-4-yl)-4,5,6,7-tetrahydro-2H-indazol-5-yl]-amide] | 

SMILES | MIC [1] [µg/mL] | MIC (S. aureus ATCC13709) [µg/mL] | MIC (S. pneumoniae ATCC49619) [µg/mL] | IC50 (E. coli DNA gyrase) [µM]
COc1ccc2nccc(-n3cc4c(n3)CCC(NC(=O)c3cc5c(cc3Cl)SCC(=O)N5)C4)c2n1 (stereo not shown) [Example 6, 7-Chloro-3-oxo-3,4-dihydro-2H-benzo[1,4]thiazine-6-carboxylic acid [2-(6-methoxy-[1,5]naphthyridin-4-yl)-4,5,6,7-tetrahydro-2H-indazol-5-yl]-amide] | 2 (≈ 3.84 µM) | < 0.125 | 4 (≈ 7.68 µM) | 0.23
COc1ccc2nccc(-n3cc4c(n3)CCC(NC(=O)c3cc5c(F)cc(F)cc5[nH]3)C4)c2n1 (stereo not shown) [Example 7, 4,6-Difluoro-1H-indole-2-carboxylic acid [2-(6-methoxyl-[1,5]naphthyridin-4-yl)-4,5,6,7-tetrahydro-2H-indazol-5-yl]-amide] | > 128 | 0.25 (≈ 0.527 µM) | > 128 | 4.22
COc1ccc2nccc(-n3cc4c(n3)CCC(NC(=O)c3nc5ccccc5[nH]3)C4)c2n1 (stereo not shown) [Example 8, 1H-Benzoimidazole-2-carboxylic acid [2-(6-methoxy-[1,5]naphthyridin-4-yl)-4,5,6,7-tetrahydro-2H-indazol-5-yl]-amide] | > 128 | 0.25 (≈ 0.569 µM) | 4 (≈ 9.1 µM) | > 36.4
COc1ccc2nccc(-n3cc4c(n3)CCC(NC(=O)C(=O)c3cc5ccccc5[nH]3)C4)c2n1 (stereo not shown) [Example 9, 2-(1H-Indol-2-yl)-N-[2-(6-methoxy-[1,5]naphthyridin-4-yl)-4,5,6,7-tetrahydro-2H-indazol-5-yl]-2-oxo-acetamide] | > 128 | 0.25 (≈ 0.536 µM) | 4 (≈ 8.57 µM) | > 34.3
